Test results published in publication PMC10379611 (International Journal of Molecular Sciences, 2023).
Like-named read-outs stand apart in the source and are kept apart here.

Experiments:
OATP1A2 = target: T1, OATP1A2 (Homo sapiens, UniProt P46721); assay: OATP1A2 uptake assay (SR101) in overexpressing A431 cells
T1 sequence (P46721 1-670): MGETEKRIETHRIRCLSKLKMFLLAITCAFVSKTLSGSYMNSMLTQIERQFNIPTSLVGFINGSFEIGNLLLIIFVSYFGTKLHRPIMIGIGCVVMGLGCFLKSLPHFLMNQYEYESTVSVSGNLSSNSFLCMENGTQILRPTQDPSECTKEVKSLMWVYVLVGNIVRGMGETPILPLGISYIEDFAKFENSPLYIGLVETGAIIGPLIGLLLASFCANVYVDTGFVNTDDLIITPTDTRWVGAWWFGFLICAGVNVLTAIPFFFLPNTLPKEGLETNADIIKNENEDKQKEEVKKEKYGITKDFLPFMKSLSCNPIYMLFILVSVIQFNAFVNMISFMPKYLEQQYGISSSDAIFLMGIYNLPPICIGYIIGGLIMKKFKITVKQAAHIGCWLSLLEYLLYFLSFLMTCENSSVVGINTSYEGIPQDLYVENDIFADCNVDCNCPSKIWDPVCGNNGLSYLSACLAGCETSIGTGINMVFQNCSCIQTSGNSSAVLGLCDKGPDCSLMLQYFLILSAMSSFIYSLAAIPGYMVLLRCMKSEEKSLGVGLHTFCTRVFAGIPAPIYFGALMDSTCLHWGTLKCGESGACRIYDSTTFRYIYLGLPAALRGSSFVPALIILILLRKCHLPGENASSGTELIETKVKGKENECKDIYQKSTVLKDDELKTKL
Experimental: To study the function of OATPs, we used A431 cells overexpressing OATP1A2, OATP1B1, OATP1B3, or OATP2B1 and mock-transfected A431 cells, generated as previously described, as controls. The interactions between OATPs and the test compounds were studied in a microplate-based indirect assay by employing fluorescent dye substrates: pyranine for OATP1B1, OATP1B3, OATP2B1 and sulforhodamine 101 for OATP1A2 [44, 45]. Briefly, OATP-overexpressing A431 cells and mock-transfected A431 cells were seeded on 96-well plates (8 × 10^4 cells/well). The next day, the cells were washed three times with phosphate buffered saline (PBS, pH 7.4) and preincubated with 50 μL uptake buffer (125 mM NaCl, 4.8 mM KCl, 1.2 mM CaCl2, 1.2 mM KH2PO4, 12 mM MgSO4, 25 mM MES (2-(Nmorpholino) ethanesulfonic acid, and 5.6 mM glucose, pH 5.5 for OATP2B1 and pH 7.4 for OATP1A2, OATP1B1, or OATP1B3) at 37 °C for 5 min in the presence or absence of the tested compounds. The reaction was started by the addition of a final concentration of 20 μM pyranine (OATP1B1, OATP1B3, OATP2B1) or 0.5 μM sulforhodamine 101 (OATP1A2). After incubation at 37 °C for 10 min, the reactions were stopped and the cells were washed three times with ice-cold PBS. Fluorescence was measured using an Enspire plate reader (Perkin Elmer, Waltham, MA, USA) (Ex/Em: 460/510 nm (pyranine) or 586/605 nm (sulforhodamine 101), and OATP-dependent transport activity was determined by subtracting the fluorescence measured in mock-transfected cells.

OATP1B1 = target: T2, OATP1B1 (Homo sapiens, UniProt Q9Y6L6); assay: OATP1B1 uptake assay (pyranine) in overexpressing A431 cells
T2 sequence (Q9Y6L6 1-691): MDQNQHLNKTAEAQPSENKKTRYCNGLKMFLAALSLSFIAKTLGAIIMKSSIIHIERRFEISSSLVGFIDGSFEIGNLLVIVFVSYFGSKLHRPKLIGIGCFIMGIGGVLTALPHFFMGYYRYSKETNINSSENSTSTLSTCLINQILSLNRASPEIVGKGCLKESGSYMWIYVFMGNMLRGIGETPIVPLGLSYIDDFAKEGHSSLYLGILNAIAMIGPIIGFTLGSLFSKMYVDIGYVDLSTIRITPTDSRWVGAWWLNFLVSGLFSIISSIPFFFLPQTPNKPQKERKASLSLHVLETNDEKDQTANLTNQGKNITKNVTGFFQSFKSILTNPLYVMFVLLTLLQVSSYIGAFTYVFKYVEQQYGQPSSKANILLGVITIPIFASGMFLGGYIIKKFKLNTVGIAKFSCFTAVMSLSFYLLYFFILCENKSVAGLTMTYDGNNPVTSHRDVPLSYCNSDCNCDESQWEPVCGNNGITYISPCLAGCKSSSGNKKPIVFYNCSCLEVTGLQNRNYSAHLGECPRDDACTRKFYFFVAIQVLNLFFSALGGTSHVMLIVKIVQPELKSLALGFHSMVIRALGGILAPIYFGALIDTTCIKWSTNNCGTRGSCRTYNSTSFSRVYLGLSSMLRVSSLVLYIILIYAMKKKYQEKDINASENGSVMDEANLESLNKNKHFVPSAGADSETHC

OATP1B3 = target: T3, OATP1B3 (Homo sapiens, UniProt Q9NPD5); assay: OATP1B3 uptake assay (pyranine) in overexpressing A431 cells
T3 sequence (Q9NPD5 1-702): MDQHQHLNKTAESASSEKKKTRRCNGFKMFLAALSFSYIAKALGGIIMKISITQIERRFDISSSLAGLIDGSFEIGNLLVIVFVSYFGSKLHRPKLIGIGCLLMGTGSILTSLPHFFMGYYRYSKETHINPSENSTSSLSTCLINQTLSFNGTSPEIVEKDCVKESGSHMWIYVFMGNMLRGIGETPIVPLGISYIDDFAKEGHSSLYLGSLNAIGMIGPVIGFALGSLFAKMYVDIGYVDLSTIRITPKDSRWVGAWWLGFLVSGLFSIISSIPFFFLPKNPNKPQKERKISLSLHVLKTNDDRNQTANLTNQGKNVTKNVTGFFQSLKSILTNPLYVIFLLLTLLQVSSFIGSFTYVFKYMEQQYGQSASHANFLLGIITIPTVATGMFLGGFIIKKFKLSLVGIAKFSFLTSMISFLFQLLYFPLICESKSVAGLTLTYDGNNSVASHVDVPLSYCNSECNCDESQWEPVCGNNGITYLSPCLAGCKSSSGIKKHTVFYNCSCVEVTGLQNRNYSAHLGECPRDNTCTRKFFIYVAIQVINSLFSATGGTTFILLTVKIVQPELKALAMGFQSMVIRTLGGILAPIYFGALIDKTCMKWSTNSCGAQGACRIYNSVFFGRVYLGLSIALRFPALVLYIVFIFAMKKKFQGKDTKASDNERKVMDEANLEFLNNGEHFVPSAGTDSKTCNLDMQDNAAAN

O=c1nc(NO)ccn1[C@@H]1O[C@H](CO)[C@@H](O)[C@H]1O [EIDD-1931]
maximum inhibition of OATP1A2 (OATP1A2; at 200 μM, SR101): 20–40% | IC50 (OATP1A2; read-out: estimated IC50, OATP1A2, SR101 substrate, A431 cells): > 200 µM | maximum inhibition of OATP1B1 (OATP1B1; at 200 μM, pyranine): 20–40% | IC50 (OATP1B1; read-out: estimated IC50, OATP1B1, pyranine substrate, A431 cells): > 200 µM | maximum inhibition of OATP1B3 (OATP1B3; at 200 μM, pyranine): 20–40% | IC50 (OATP1B3; read-out: estimated IC50, OATP1B3, pyranine substrate, A431 cells): > 200 µM

CC(C)(C)[C@H](NC(=O)C(F)(F)F)C(=O)N1C[C@H]2[C@@H]([C@H]1C(=O)N[C@H](C#N)C[C@@H]1CCNC1=O)C2(C)C [Nirmatrelvir]
inhibition of OATP1A2 by Nirmatrelvir alone (OATP1A2; at 20 μM): only a minor inhibitory effect | IC50 at 10 min (OATP1A2; human, pH 7.4): 79.5 µM | inhibition of OATP1B1 by Nirmatrelvir alone (OATP1B1; at 20 μM): only a minor inhibitory effect | inhibition of OATP1B3 by Nirmatrelvir alone (OATP1B3; at 20 μM): only a minor inhibitory effect

CC(C)C(=O)OC[C@H]1O[C@@H](n2ccc(NO)nc2=O)[C@H](O)[C@@H]1O [EIDD-2801, Molnupiravir]
IC50 (OATP1A2): > 200 µM | inhibition at 10 min, 200 µM (OATP1A2; human, A431 cells overexpressing OATP1A2, pH 7.4, probe sulforhodamine 101 (0.5 μM)): 20 to 40% | IC50 (OATP1B1): > 200 µM | inhibition at 10 min, 200 µM (OATP1B1; human, A431 cells overexpressing OATP1B1, pH 7.4, probe pyranine (20 μM)): 20 to 40% | IC50 (OATP1B3): > 200 µM | inhibition at 10 min, 200 µM (OATP1B3; human, A431 cells overexpressing OATP1B3, pH 7.4, probe pyranine (20 μM)): 20 to 40%
